pIC50: −log10 of the molar value.

A short description of this experiment: Inhibition of [3H]-TCP binding to PCP receptor obtained from tissue homogenate preparation of fresh whole rat brain minus cerebellum.
Turning to `c1ccc2c(c1)C1CCCCC21N1CCCCC1` (stereo not drawn) [1-(1,3,4,8b-Tetrahydro-2H-biphenylen-4a-yl)-piperidine], the negative-log IC50 (pIC50) is 5.37.
Next, `c1ccc2c(c1)C1CCC2(N2CCCCC2)C1` (stereo not drawn) [1-(3,4-Dihydro-2H-1,4-methano-naphthalen-1-yl)-piperidine]: 3.97; `c1ccc2c(c1)C1CCC2(N2CCCCC2)CC1` [1-Tricyclo[6.2.2.0*2,7*]dodeca-2(7),3,5-trien-1-yl-piperidine]: 3.93.

What is called pIC50 is −log10 of the IC50, conventionally taken in molar units. Low values mean a large IC50, high ones a small IC50.

The values are drawn from BindingDB's records for doi:10.1021/jm970059p (University of Illinois At Chicago, 1998).
